Consider one compound from paper PMC9257522, “Machine Learning for Discovery of New ADORA Modulators” (Frontiers in Pharmacology, 2022).

SMILES strings stand for the structures. “Also recorded” adds a separate entry of the source.

The subject of assay [1] is T1, human A1AR.
T1 construct: host or cells: HEK293 A1AR Nomad cell line
In words: A1AR cAMP assay, HEK293 A1AR Nomad cell line (Innoprot), agonist mode. It counts as cell-based. To be noted: compounds at 10 µM, normalized to 10 µM NECA (100%) and vehicle DMSO (0%). An excerpt: For screening of the initial compounds predicted by machine learning models to activate A1AR receptor, we used the HEK293 A1AR Nomad cell line, which consists of HEK293 cells stably expressing human A1AR with no tag. This cell line has been designed to assay compounds or analyze their capability to modulate the A1AR. When the agonist binds to A1AR in this engineered cell line a Go protein is activated, which in turn, triggers a cellular response mediated by cAMP inhibition. This cellular response can be measured by quantifying the increase in fluorescence intensity and its cellular distribution. An agonist assay was performed for 29 compounds (predicted to be active by the machine learning model) in the human recombinant HEK293 A1AR Nomad cell line using a fluorescence-based assay. An agonist effect of the compounds was measured by quantifying the changes in the fluorescence emission cAMP Nomad biosensor, this elevation of fluorescence was analyzed using a plate reader Synergy 2 (Biotek, Winooski, VT). The error bars represent the standard deviation among the three replicate wells. The 29 compounds were tested at 10 μM using nonselective AR agonist adenosine-5′-N-ethyluronamide (NECA) at 10 μM as a reference.

Assay [2] deals with T1, human A1AR. In words: Radioligand displacement binding, [3H]DPCPX, HEK293 membranes. Conditions: mean ± standard error, three independent experiments. As to the method:
(§1) HEK293 cells stably expressing the human A1AR, A2AAR, A3AR were cultured in DMEM supplemented with 10% fetal bovine serum, 100 Units/ml penicillin, 100 µg/ml streptomycin, and 2 µmol/ml glutamine. To prepare cell membranes, cells were detached from culture plates by scraping into cold PBS and centrifuged at 250 g for 5 min. The pellets were resuspended in ice-cold PBS buffer (pH 7.4) and then homogenized. After homogenization and suspension, cells were centrifuged at 1,000 g for 10 min, and the pellet was discarded. The suspension was then re-centrifuged at 20,000 g for 60 min at 4°C. […] The aliquots of membrane preparations were stored at −80°C until the binding experiments. For displacement binding assays, membrane preparations (20 µg proteins/tube) were incubated at 25°C for 60 min with a final concentration of [^3H]DPCPX (0.5 nM), [^3H]ZM241385 (1.0 nM), […] [^125I]I-AB-MECA (0.1 nM) for A1AR, A2AAR, A3AR, respectively, in a mixture containing 50 µl of increasing concentrations of a test ligand in a total assay volume of 200 µl of 50 mM Tris HCl, pH 7.4, containing 10 mM MgCl2. Nonspecific binding was determined using 100 µM of XAC. The reaction was terminated by filtration with GF/B filters using a Brandel (Gaithersburg, MD) 24-channel harvester. Filters were placed in scintillation vials containing 5 ml of Hydrofluor scintillation buffer (National Diagnostics, Atlanta, GA) and counted using a Tricarb 2810TR liquid scintillation counter (PerkinElmer, Waltham, MA).
In general terms: Loss of bound radioactivity is the signal in a displacement assay; it reports binding, not function.

Assay [3] addresses T2, human A2AAR (Homo sapiens, UniProt P29274).
T2 construct: expressed in transfected cells; host or cells: HEK293
Briefly: Radioligand displacement binding, [3H]ZM241385, HEK293 membranes. Conditions: 100 µM, mean ± standard error, three independent experiments. On the procedure: as §1

The subject of assay [4] is human A2BAR. Briefly: Radioligand displacement binding, [3H]DPCPX.
The target of assay [5] is T3, human A3AR (Homo sapiens, UniProt P0DMS8).
T3 sequence (P0DMS8 1-318): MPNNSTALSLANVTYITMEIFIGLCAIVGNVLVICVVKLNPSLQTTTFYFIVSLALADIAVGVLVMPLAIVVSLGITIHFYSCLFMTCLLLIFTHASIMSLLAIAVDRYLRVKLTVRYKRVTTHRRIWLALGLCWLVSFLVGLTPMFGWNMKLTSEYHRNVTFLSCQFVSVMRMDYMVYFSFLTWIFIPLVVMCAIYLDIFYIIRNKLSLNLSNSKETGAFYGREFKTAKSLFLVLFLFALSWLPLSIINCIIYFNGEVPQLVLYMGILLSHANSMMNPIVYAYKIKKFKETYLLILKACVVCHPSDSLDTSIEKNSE
Briefly: Radioligand displacement binding, [125I]I-AB-MECA, HEK293 membranes. To be noted: 100 µM, mean ± standard error, three independent experiments. As to the method: as §1

In assay [6] the test system is T4, A1AR.
T4 construct: expressed in transfected cells; host or cells: HEK293
Briefly: cAMP assay in AR-expressing HEK293 cells (ALPHAScreen), A1AR. It counts as cell-based, human. Conditions: A1AR-expressing HEK cells, cAMP inhibition, Cl-ENBA reference full agonist. On the procedure: (§2) HEK293 cells were grown in 96-well plates in DMEM supplemented with 10% fetal bovine serum, 100 Units/ml penicillin, 100 µg/ml streptomycin, and 2 µmol/ml glutamine. […] For A1AR and A3AR, after incubation with agonists for 20 min, forskolin (10 µM) was added and the mixture incubated for an additional 15 min. The reaction was terminated upon removal of the supernatant and addition of 100 µl Tween-20 (0.3%). Intracellular cAMP levels were measured with an ALPHAScreen cAMP assay kit as instructed by the manufacturer (PerkinElmer).
(In general: Cyclic AMP is a second messenger, typically raised through Gs and lowered through Gi signalling.)

Assay [7] has as its system T5, A2BAR.
T5 construct: expressed in transfected cells; host or cells: HEK293
Briefly: cAMP assay in AR-expressing HEK293 cells (ALPHAScreen), A2BAR. It counts as cell-based. As to the method: as §2

Assay [8] relates to T6, A1AR.
T6 construct: host or cells: A1AR-bla U2OS
In words: PathHunter β-Arrestin assay (Eurofins/DiscoverX), agonist mode. It counts as cell-based. Conditions: maximum concentration 20 µM; normalized to control agonist CPA and vehicle. On the procedure:
PathHunter cell lines were expanded from freezer stocks according to standard procedures. […] For agonist determination, cells were incubated with sample to induce response. Intermediate dilution of sample stocks was performed to generate 5X sample in assay buffer. […] Vehicle concentration was 1%. […] Microplates were read following signal generation with a PerkinElmer Envision™ instrument for chemiluminescent signal detection.
This parental cell line stably expresses a beta‐arrestin/TEV protease fusion protein and the beta‐lactamase reporter gene under the control of a UAS response element. […] We also used a secondary assay PathHunter® β-Arrestin assay, which monitors the activation of A1AR in a homogenous, non-imaging assay format using a technology developed by DiscoverX called Enzyme Fragment Complementation (EFC) with β-galactosidase (β-Gal) as the functional reporter.

The target of assay [9] is T7, human A1 receptor (Homo sapiens, UniProt P30542).
T7 sequence (P30542 1-326): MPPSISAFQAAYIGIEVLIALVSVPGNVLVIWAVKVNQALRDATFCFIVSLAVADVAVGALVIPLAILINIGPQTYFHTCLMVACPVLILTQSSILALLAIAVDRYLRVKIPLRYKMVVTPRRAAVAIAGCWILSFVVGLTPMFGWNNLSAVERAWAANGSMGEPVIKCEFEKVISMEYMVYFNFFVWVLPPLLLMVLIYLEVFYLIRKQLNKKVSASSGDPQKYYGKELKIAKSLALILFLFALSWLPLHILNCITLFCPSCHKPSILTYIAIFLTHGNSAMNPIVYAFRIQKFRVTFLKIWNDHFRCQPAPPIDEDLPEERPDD
Briefly: A1AR calcium influx assay in BA/F3 cells (Eurofins). To be noted: maximum concentration tested 20 µM.
Method: This assay was performed using the screening services of Eurofins. Evaluation of the agonist activity of compounds at the human A1 receptor expressed in BA/F3 cells was determined by measuring their effect on cytosolic Ca^2+ ion mobilization using a fluorimetric detection method. The cells were suspended in HBSS buffer (Invitrogen) complemented with 20 mM Hepes and then distributed in microplates at a density of 5 × 10^4 cells/well. The fluorescent probe (Fluo8, AAT Bioquest, San Francisco, CA) mixed with probenicid in HBSS buffer (Invitrogen) complemented with 20 mM Hepes (Millipore, Burlington, MA) (pH 7.4) was then added into each well and equilibrated with the cells for 60 min at 30°C. Thereafter, the assay plates were positioned in a microplate reader (FlipR Tetra, Molecular Devices, San Jose, CA), which was used for the addition of the test compound, reference agonist or HBSS buffer (basal control), and for the measurements of changes in fluorescence intensity that varies proportionally to the free cytosolic Ca^2+ ion concentration.

T2 sequence (P29274 whole entry): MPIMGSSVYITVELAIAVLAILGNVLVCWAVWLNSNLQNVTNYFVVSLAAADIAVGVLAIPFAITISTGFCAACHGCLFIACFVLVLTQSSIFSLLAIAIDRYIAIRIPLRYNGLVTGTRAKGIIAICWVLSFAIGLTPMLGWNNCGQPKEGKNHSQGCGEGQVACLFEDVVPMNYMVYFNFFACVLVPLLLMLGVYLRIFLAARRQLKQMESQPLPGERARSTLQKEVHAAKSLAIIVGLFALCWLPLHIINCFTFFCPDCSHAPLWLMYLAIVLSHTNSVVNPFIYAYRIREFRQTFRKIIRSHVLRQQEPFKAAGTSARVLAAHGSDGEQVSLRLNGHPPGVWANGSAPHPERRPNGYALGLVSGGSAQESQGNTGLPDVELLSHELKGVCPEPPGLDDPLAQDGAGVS

Take `N#Cc1ccc(Oc2ccc3c(c2)COB3O)cc1` [Crisaborole]: in [1], the “normalized activity with respect to the positive control” value was determined as 98.52%. Also, the “Inhibition of specific binding, % inhibition at 100 µM, A1 ([3H]DPCPX)” value in assay [2] is given as 36.9 ± 3.4%; in assay [2] (listed as crisaborole), “weakly binding”. Moreover, in assay [3], the “Inhibition of specific binding, % inhibition at 100 µM, A2A ([3H]ZM241385)” value is on record as “No significant binding inhibition”. Also, the inhibition (in general, the relative decrease from the control value, in per cent) at 100 µM in [3] (read-out: Inhibition of specific binding, % inhibition at 100 µM, A2A ([3H]ZM241385)) was 31.2 ± 5.6%; in assay [5] (read-out: Inhibition of specific binding, % inhibition at 100 µM, A3 ([125I]I-AB-MECA)), 28.8 ± 16.3%. Further, the “Inhibition of specific binding, % inhibition at 100 µM, A2B ([3H]DPCPX)” value in assay [4] is less than 10%. For the same compound, in assay [5], the “Inhibition of specific binding, % inhibition at 100 µM, A3 ([125I]I-AB-MECA)” value is recorded as “No significant binding inhibition”. For the same compound, the entries for the “cAMP, A1AR agonist activity” value in [6] and in assay [6] (listed as crisaborole) were “Not active” and “without activity”, respectively. Also, the “cAMP Emax, A2BAR” value in assay [7] (NECA reference full agonist (100%)) was “Emax = 17%”. Further, the “cAMP accumulation, A2BAR” value in assay [7] (weaker than at the A2AAR) is on record as “increased cAMP accumulation”. Also, the “activation of A1AR, PathHunter β-Arrestin assay” value in [8] was “no activation; also recorded: without activity; also recorded: no agonist activity”. Further, the entries for the “A1AR agonist activity, calcium influx assay” value in assay [9] and in [9] (listed as crisaborole) were “no activity” and “without activity”, respectively.
